# Experimental data published in patent US11840533B2, “Pyridinone-based epigenetic modifiers and uses thereof” (THE BOARD OF TRUSTEES OF THE UNIVERSITY OF ILLINOIS, priority 2017, dated 2023).
# Tested on: fulvestrant-resistant MCF7:5C-FR cells
# Experiment: Fulvestrant-resistant breast cancer cell viability (cell proliferation) assay
# Assay type: cell-based
# Settings: 120 h, growth inhibition in fulvestrant-resistant MCF-7:CFR cells, 120 hrs
# Protocol: For the cell proliferation assay, the fulvestrant-resistant MCF7:5C-FR cells were seeded at about 2000 to about 2500/well in 96-well plates. The next day, compounds were add to the cells at desired serial concentrations form 3 nM to 10 uM. A final 0.1% (v/v) DMSO was used as vehicle control and 1 uM JQ1 was used as positive. The cell were grown in the normal culture condition for 120 hrs. Then the Hoechst 33342 dye were add to each well at a final concentration of 5 μg/ml, and put back to the incubator at 37 C for 90 min. The plates were scanned immediately after the incubation with Celigo (Nexcelcom Biocesnse) for the fluorescence of the nuclear using DAPI channel, and the cell number was counted thought the analysis function of the Celigo software. The normalized cell number to the vehicle control was used to represent the cell proliferation. […] N.D.=Not determined.
row,SMILES,IC50 [µM]
1,"CCS(=O)(=O)Nc1cccc2c1nc(-c1cn(C)c3c(O)nccc13)n2C(C)(c1ccccn1)c1ccccn1 [Compound 69, N-(1-(1,1-di(pyridin-2-yl)ethyl)-2-(7-hydroxy-1-methyl-1H-pyrrolo[2,3-c]pyridin-3-yl)-1H-benzo[d]imidaol-4-yl)ethanesulfonamide]",< 1
2,"Cn1cc(-c2cc(NS(C)(=O)=O)c3ccn(CC4CC(F)(F)C4)c3c2)c2cc[nH]c(=O)c21 [Compound 73, N-(1-((3,3-difluorocyclobutyl)methyl)-6-(1-methyl-7-oxo-6,7-dihydro-1H-pyrrolo[2,3-c]pyridin-3-yl)-1H-indol-4-yl)methanesulfonamide]",0.062
3,"Cn1cc(-c2cc(NS(C)(=O)=O)c3ccn(CC4(C)COC4)c3c2)c2cc[nH]c(=O)c21 [Compound 74, N-(6-(1-methyl-7-oxo-6,7-dihydro-1H-pyrrolo[2,3-c]pyridin-3-yl)-1-((3-methyloxetan-3-yl)methyl)-1H-indol-4-yl)methanesulfonamide]",0.134
4,"CCS(=O)(=O)Nc1cc(-c2cn(C)c3c(=O)[nH]ccc23)cc2c1ccn2C(C)(c1nccn1C)c1nccn1C [Compound 75, N-(1-(1,1-bis(1-methyl-1H-imidazol-2-yl)ethyl)-6-(7-hydroxy-1-methyl-1H-pyrrolo[2,3-c]pyridin-3-yl)-1H-indol-4-yl)ethanesulfonamide]",< 1
5,"CCS(=O)(=O)Nc1cc(-c2cn(C)c3c(=O)[nH]ccc23)cc2c1ccn2C(C)(c1cnccn1)c1cnccn1 [Compound 76, N-(1-(1,1-di(pyrazin-2-yl)ethyl)-6-(7-hydroxy-1-methyl-1H-pyrrolo[2,3-c]pyridin-3-yl)-1H-indol-4-yl)ethanesulfonamide]",< 1
6,"CCN(C(=O)C1COC1)c1cc(-c2cn(C)c3c(=O)[nH]ccc23)cc2c1ccn2Cc1c(C)cccc1C [Compound 77, N-(1-(2,6-dimethylbenzyl)-6-(7-hydroxy-1-methyl-1H-pyrrolo[2,3-c]pyridin-3-yl)-1H-indol-4-yl)-N-ethyloxetane-3-carboxamide]",> 0.1
7,"CCC(=O)N(c1cc(-c2cn(C)c3c(=O)[nH]ccc23)cc2c1ccn2Cc1c(C)cccc1Cl)C1CC1 [Compound 78, N-(1-(2-chloro-6-methylbenzyl)-6-(7-hydroxy-1-methyl-1H-pyrrolo[2,3-c]pyridin-3-yl)-1H-indol-4-yl)-N-cyclopropylpropionamide]",> 0.1
8,"CS(=O)(=O)Nc1cc(-c2cn(CCCl)c3c(O)nccc23)cc2c1ccn2Cc1ccc(F)cc1 [Compound 79, N-(6-(1-(2-chloroethyl)-7-hydroxy-1H-pyrrolo[2,3-c]pyridin-3-yl)-1-(4-fluorobenzyl)-1H-indol-4-yl)methanesulfonamide]",> 0.1
9,"CCS(=O)(=O)Nc1cc(-c2cn(CCCl)c3c(O)nccc23)cc2c1ccn2Cc1ccc(F)cc1 [Compound 80, N-(6-(1-(2-chloroethyl)-7-hydroxy-1H-pyrrolo[2,3-c]pyridin-3-yl)-1-(4-fluorobenzyl)-1H-indol-4-yl)ethanesulfonamide]",> 0.1
10,"CCS(=O)(=O)Nc1cc(-c2cn(CCCl)c3c(O)nccc23)cc2c1ccn2Cc1ccc(F)cc1C [Compound 81, N-(6-(1-(2-chloroethyl)-7-hydroxy-1H-pyrrolo[2,3-c]pyridin-3-yl)-1-(4-fluoro-2-methylbenzyl)-1H-indol-4-yl)ethanesulfonamide]",> 0.1
11,"CCS(=O)(=O)Nc1cc(-c2cn(CCCl)c3c(O)nccc23)cc2c1ccn2Cc1ccc(F)cc1Cl [Compound 82, N-(1-(2-chloro-4-fluorobenzyl)-6-(1-(2-chloroethyl)-7-hydroxy-1H-pyrrolo[2,3-c]pyridin-3-yl)-1H-indol-4-yl)ethanesulfonamide]",> 1
12,"CCS(=O)(=O)Nc1cc(-c2cn(CCCl)c3c(O)nccc23)cc2c1ccn2Cc1c(C)cc(F)cc1C [Compound 83, N-(6-(1-(2-chloroethyl)-7-hydroxy-1H-pyrrolo[2,3-c]pyridin-3-yl)-1-(4-fluoro-2,6-dimethylbenzyl)-1H-indol-4-yl)ethanesulfonamide]",> 1
